Experimental data taken from patent US11866460B2 (priority 2015, dated 2024).
Where no end group is shown, it is not given here.

Tests used:
S. aureus (ATCC 25923) = conditions: for MIC in PB: 10 mM potassium phosphate buffer, pH 7.2; for MIC in PBS: phosphate-buffered saline
in vitro = conditions: African green monkey
DENV-2 New Guinea C = conditions: -2 New Guinea C; for EC50: 0 h
CHIKV 181/25 = conditions: for EC50: 0 h
DENV-3 H87 = conditions: for Therapeutic Index (CC50/EC50): -3 H87; for EC50: -3 H87, 0 h
DENV-4 H241 = conditions: for Therapeutic Index (CC50/EC50): -4 H241; for EC50: -4 H241, 0 h
DENV-1 PRS41393 = conditions: for Therapeutic Index (CC50/EC50): -1 PRS41393; for EC50: -1 PRS41393, 0 h
Vero cells = conditions: African green monkey
VEEV TC-83 = conditions: 0 h

Row | Sequence | MHC (human erythrocyte cells) [µM] | MIC in PB (S. aureus (ATCC 25923)) [µM] | MIC in PBS (S. aureus (ATCC 25923)) [µM] | CC50 (in vitro) [µM] | Therapeutic Index (CC50/EC50) (DENV-2 New Guinea C) | Therapeutic Index (CC50/EC50) (CHIKV 181/25) | Therapeutic Index (CC50/EC50) (DENV-3 H87) | EC50 (DENV-3 H87) [µM] | Therapeutic Index (CC50/EC50) (JEV 14-14-2) | Therapeutic Index (CC50/EC50) (DENV-4 H241) | EC50 (DENV-4 H241) [nM] | Therapeutic Index (CC50/EC50) (DENV-1 PRS41393) | EC50 (DENV-1 PRS41393) [µM] | Therapeutic Index (CC50/EC50) (YFV 17D) | CC50 (Vero cells) [µM] | EC50 (VEEV TC-83) [µM] | also measured
1 | AGSWLRDIWTWLQSAL [TSG008] | 1.5 | 1.5 | 1.5 |  |  |  |  |  |  |  |  |  |  |  |  |  | 
2 | GSSWLRDILTALQSLL [TSG007] | 1.5 | 1.5 | 1.5 |  |  |  |  |  |  |  |  |  |  |  |  |  | 
3 | GSSWLRDIWTALQSWL [TSG006] | 3 | 1.5 | 1.5 | 14.9 | 26.04 | 5.07 | 11.71 | 1.63 | 10.71 | 11.63 | 2110 | 12.03 | 1.56 | 22.09 |  |  | 
4 | GSSWLRDIWTKLQSWL [TSG005] | 13 | 1.5 | 1.5 |  |  |  |  |  |  |  |  |  |  |  |  |  | 
5 | GSSWLRDVWTKLQSWL [TSG004] | 50 | 1.5 | 1.5 | 111 | 18.29 | 14.89 | 18.64 |  | 24.46 | 15.88 | 6500 | 13.45 | 6.24 | 14.33 | 114 | > 50 | EC50 (DENV-2 New Guinea C): 8.63 µM; EC50 (CHIKV 181/25): 9.52 µM
6 | GSSWLRDVWTWLQSAL [TSG003] | 50 | 1.5 | 1.5 | 24.5 | 22.33 | 17.72 | 22.33 |  |  | 20.23 |  | 11.46 | 6.12 | 18.05 | 38.6 | > 12.5 | EC50 (JEV 14-14-2; 0 h): 16.3 µM
7 | GSSWLRDVWTWLQSKL [TSG002] | 50 | 1.5 | 1.5 |  | 9.60 | 4.73 | 6.09 | 5.09 | 6.72 | 8.58 |  | 10.41 |  | 7.40 | 16.1 | > 12.5 | EC50 (DENV-2 New Guinea C): 2.74 µM; EC50 (CHIKV 181/25): 3.21 µM; EC50 (Ebola virus (EBOV)): 1010 nM; EC50 (Marburg virus (MARV)): 922 nM
8 | SGSWLRDVWTWLQSKL [TSG001 L-isomer] |  |  |  |  |  |  |  |  |  |  |  |  |  |  | > 20 |  | 
9 | SWLRDIWDWICEVLSDFK [C5A, reference compound] | 13 |  | >100 |  | 85.26 | 9.38 | 15.02 | 3.86 | 61.68 | 22.13 | 1650 | 44.60 |  | 99.97 |  |  | EC50 (in vitro): 29 µM
